From patent US20100292231A1, “Indazole Compounds for Treating Inflammatory Disorders, Demyelinating Disorders and Cancers” (priority 2007, published 2010) come the findings set out here.

In one assay the target is T1, FLT3 (Homo sapiens, UniProt P36888).
T1 construct: purchased Invitrogen (SelectScreen platform)
T1 sequence (P36888 27-993): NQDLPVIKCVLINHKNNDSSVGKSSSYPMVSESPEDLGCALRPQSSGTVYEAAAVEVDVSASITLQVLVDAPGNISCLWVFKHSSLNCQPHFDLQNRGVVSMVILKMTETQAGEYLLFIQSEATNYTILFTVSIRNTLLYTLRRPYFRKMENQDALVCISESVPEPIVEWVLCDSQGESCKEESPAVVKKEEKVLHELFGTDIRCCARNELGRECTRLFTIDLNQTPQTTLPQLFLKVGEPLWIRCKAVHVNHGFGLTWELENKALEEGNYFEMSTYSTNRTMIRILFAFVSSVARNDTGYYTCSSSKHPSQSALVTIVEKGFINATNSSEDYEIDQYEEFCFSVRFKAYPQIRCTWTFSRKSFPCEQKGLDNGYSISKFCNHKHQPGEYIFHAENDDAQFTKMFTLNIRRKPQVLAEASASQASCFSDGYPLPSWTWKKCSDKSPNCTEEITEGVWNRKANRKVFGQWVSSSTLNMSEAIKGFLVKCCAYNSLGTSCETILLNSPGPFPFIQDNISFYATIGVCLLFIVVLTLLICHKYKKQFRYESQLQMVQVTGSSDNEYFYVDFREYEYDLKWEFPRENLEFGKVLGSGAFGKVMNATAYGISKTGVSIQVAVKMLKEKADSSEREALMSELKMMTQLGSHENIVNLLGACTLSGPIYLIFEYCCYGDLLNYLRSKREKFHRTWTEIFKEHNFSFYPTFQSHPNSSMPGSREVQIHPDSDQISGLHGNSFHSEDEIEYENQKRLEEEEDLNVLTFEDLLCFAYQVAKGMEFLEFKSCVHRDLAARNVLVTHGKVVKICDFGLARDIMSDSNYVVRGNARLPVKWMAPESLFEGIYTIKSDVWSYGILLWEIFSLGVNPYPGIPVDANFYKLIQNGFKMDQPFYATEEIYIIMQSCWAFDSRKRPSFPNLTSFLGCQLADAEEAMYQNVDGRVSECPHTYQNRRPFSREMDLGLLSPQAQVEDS
The assay is described as follows: SelectScreen FLT3 kinase dose response assay. It counts as biochemical. The settings on record: ATP 100 micromolar; for EC50: dose response, 4 parameter Hill equation, read-out: FLT3 Inhibition EC50. Here is the method:
The terms “IC50” and “EC50” are used interchangeably. As used herein, “EC50” refers to nMolar concentration at median percent inhibition determined by dose respose (DR) assay. As used herein, the term “E1000” refers to percent inhibition at 1000 nMolar determined by assay.
Testing of the compounds described in this invention was carried out using the SelectScreen™ platform from Invitrogen, Inc. (Carlsbad. Calif., USA) and the details of its performance are readily viewed via the web by linking to: http://www.invitrogen.com/downloads/SelectScrn_Brochure.pdf.
Briefly, the approach is based on treating each specific kinase with a unique substrate and optical reporter system in the presence of ATP at 100 micromolar. In controls, the substrate is phosphorylated and a baseline optimal response is recorded.
The compounds were then re-tested by adding graded amounts of putative inhibitor which were added in 5 separate increments to generate a dose response curve. The latter is obtained by fitting to a 4 parameter Hill equation, a sigmoid saturation equation.
For the compounds of this invention, the experimental conditions were as follows. The 2× FLT3/Tyr 02 peptide mixture was prepared in 50 mM HEPES pH 7.5, 0.01 BRIJ-35, 10 mM MgCl2, 1 mM EGTA. The final 10 uL kinase reaction consists of 0.6-76.0 ng FLT3 and 2 uM Tyr 02 peptide in 50 mM HEPES pH 7.5, 0.01% BRIJ-35, 10 mM MgCl2, 1 mM EGTA. After 1 hour kinase reaction incubation, 5 uL of a 1:64 dilution of development reagent A was added.

Assay [1] concerns Raw264.7 (murine macrophage-like cells). The assay is described as follows: sulforhodamine B (SRB) cytotoxicity assay. The settings on record: Mus musculus, RAW264.7, 144 h; 25 μM highest concentration, diluted 1:5; 6 days; read-out: IC50 Measured Against Raw264.7 Cell Line. It counts as cell-based. In general terms: The SRB assay estimates cell density from bound dye.

Structures are written as SMILES.

As a reminder, the inhibition is the drop in the measured response relative to a control, in per cent. As a reminder, the EC50 is the concentration needed to bring the measured effect to its halfway point. As a reminder, the IC50 is the concentration at which inhibition is half-maximal.

With `O=c1c2c(F)ccc3ncn(c4ccc5[nH]ncc5c14)c32` [(XVIII)], the inhibition at 1 µM at FLT3 (1000 nMolar compound, read-out: FLT3 Inhibition E1000 (percent inhibition at 1000 nMolar)) is 47%. Moreover, the EC50 at FLT3 turned out to be 1330 nM.
As to `Cc1nc2cc3nc(-c4cccs4)cnc3cc2n1C` [AGL-2043, reference compound], the “FLT3 Inhibition E1000 (percent inhibition at 1000 nMolar)” value at FLT3 (1000 nMolar compound) is on record as 93%. Moreover, the EC50 at FLT3 was 38 nM.
In the case of `c1ccc(-c2n[nH]c3c2oc2ccccc23)cc1` [GTP-14564, reference compound], the “FLT3 Inhibition E1000 (percent inhibition at 1000 nMolar)” value on FLT3 (1000 nMolar compound) is 95%. Moreover, the EC50 at FLT3 stood at 26 nM.
With `CCN(CC)CCNC(=O)c1c(C)[nH]c(/C=C2\C(=O)Nc3ccc(F)cc32)c1C` [Sunitinib, sunitinib, reference compound], the IC50 in assay [1] is 763 nM.
